According to patent publication US9085602B1, “Facial amphiphiles and methods of use” (The Scripps Research Institute, priority 2008, dated 2015):
Several values for one entry are separate records, joined by “and”; a condition that tells them apart may be missing. Equal entries are not always repeated. Where two headings read alike, the source gives them in different places.

How the values were obtained:
[1] = Hydrodynamic radius of detergent micelles (DynaPro/Titan instrument); assay type: physicochemical; settings: measured at a concentration of 0.03% in water
[2] = target: T1, bacteriorhodopsin (BR) (Halobacterium salinarum, UniProt P02945); assay: Stabilization of bacteriorhodopsin followed by UV-Vis absorption; parameters: species or system Halobacterium halobium; settings: for stability of BR stored in the detergent: pH 5.6, RT, A1 for more than 5 months
T1 construct: BR was isolated from purple membrane of Halobacterium halobium (strain S9); endogenous in cells; host or cells: Halobacterium halobium strain S9, purple membrane
T1 sequence (P02945 14-262): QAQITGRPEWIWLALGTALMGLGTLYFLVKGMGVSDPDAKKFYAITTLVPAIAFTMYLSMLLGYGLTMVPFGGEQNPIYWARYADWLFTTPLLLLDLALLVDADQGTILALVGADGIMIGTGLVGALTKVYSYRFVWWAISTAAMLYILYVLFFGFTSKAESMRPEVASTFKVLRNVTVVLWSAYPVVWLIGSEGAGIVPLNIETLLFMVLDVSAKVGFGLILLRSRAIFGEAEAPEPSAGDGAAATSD
Text: BR has a characteristic adsorption at visible wavelength (λmax: ˜550 nm in detergents) due to the bound retinal ligand in the interior of the transmembrane region, serving as an excellent system for the testing of designed amphiphiles.
BR was isolated from purple membrane of Halobacterium halobium (strain S9) and purified in 1.2% β-octyl-glycoside (OG) as reported in literature (Landau, E. M.; Rosenbusch, J. P. Proc. Natl. Acad. Sci. USA 1996, 93, 14532-5). […] After several dilution-concentration cycles, the final OG concentration was <1% of its CMC (0.53%). […] The UV-Vis absorption spectra of BR samples were recorded on a DXT880 multiplate spectrofluorimeter (Beckman Coulter).

[3] = Critical micelle concentration (CMC) by ANS fluorescence dye binding; assay type: physicochemical; settings: in water at 25° C.
Experimental: See De Vendittis et al., Anal. Biochem. 1981, 115, 278-86. The molecule ANS has a weak fluorescence in detergent concentrations below CMC, but becomes highly fluorescent when incorporated into the hydrophobic micellar environment. […] The emission fluorescence intensities at 465 nm were recorded (λex=405 nm) on a DXT880 multiplate spectrofluorimeter (Beckman Coulter). The CMC is defined as the breakpoint in the fluorescence (FIG. 4).
See also De Vendittis et al., Anal. Biochem. 1981, 115, 278-86.

[4] = target: T2, MsbA (Salmonella typhimurium, UniProt P63359); assay: Small-angle x-ray scattering of MsbA in detergent; settings: separation of PDC signal from empty micelles
Text: The facial amphiphiles self-assemble to smaller micelles and form smaller protein-detergent complexes (PDCs) than the conventional detergents. Because of these unique properties, facial amphiphiles can be used for SAX (small-angle x-ray scattering) studies of integral membrane proteins. A major challenge for applying SAXS to membrane protein structural analysis is the need to separate the scattering signal of the PDC from that of the empty micelles. With conventional head-to-tail detergents, it is difficult to achieve this goal because of the presence of the large detergent micelles and the characteristic second peak in the scattering intensity. Remarkably, the facial amphiphiles described herein allow one to separate the scattering signal of the PDC from that of the empty micelles.

[5] = target: T3, cytochrome c oxidase ba3 (Thermus thermophilus, UniProt P82543+Q5SJ79+Q5SJ80); assay: Crystallization of cytochrome c oxidase ba3 by detergent exchange from β-DDM; settings: pure detergent
T3 sequence (Q5SJ79 1-562): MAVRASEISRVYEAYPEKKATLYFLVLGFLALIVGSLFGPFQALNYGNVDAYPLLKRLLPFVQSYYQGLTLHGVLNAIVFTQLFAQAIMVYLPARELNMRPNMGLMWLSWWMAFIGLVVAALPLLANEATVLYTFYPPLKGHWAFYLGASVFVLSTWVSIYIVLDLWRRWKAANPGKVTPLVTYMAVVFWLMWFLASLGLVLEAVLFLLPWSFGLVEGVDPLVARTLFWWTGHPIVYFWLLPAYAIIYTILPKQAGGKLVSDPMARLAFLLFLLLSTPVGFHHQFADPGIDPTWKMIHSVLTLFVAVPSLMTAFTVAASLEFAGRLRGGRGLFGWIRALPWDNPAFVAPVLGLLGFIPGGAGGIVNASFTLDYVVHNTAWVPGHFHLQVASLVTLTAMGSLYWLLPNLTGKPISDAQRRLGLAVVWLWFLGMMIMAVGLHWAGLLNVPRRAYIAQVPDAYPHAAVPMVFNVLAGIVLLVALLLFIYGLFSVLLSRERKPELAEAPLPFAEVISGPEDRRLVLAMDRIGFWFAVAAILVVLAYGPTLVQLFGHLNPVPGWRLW
T3 sequence (Q5SJ80 1-168): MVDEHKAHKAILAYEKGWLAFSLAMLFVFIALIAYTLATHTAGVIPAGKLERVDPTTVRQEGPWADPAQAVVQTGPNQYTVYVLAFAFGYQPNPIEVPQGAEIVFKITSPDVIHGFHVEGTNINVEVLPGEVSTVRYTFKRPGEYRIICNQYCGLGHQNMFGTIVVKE
T3 sequence (P82543 1-34): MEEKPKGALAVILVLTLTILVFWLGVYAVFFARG
Experimental: The facial amphiphiles were evaluated in the crystallization of cytochrome c oxidase ba3 by detergent exchange from β-DDM. Several new crystal forms were obtained depending on which detergent was used, albeit in less than optimal diffraction quality (>6 Å). […] Crystals of human connexin 26 have also been obtained using the purely facial amphiphiles described herein.

[6] = known detergents, comparison values; cited from earlier work
[7] = target: T2, MsbA; assay: Detergent binding measurement using glycosidic colorimetric assay; parameters: made in house; species or system S. typhimurium; settings: MsbA fractions from chromatography
[8] = target: T4, MsbA from S. typhimurium (ST-MsbA) (Salmonella typhimurium, UniProt P63359); assay: Linked enzyme ATPase assay of detergent-solubilized MsbA (activity and stability); assay type: biochemical
T4 construct: made in house
Experimental: The purified protein in the candidate detergent was assayed for activity by a standard linked enzyme ATPase assay to probe the protein stability.
MsbA was prepared from S. typhimurium as described previously (Reyes, C. L.; Chang, G. Acta Crystallograph Sect. F Struct. Biol. Cryst. Commun. 2005, 61, 655-8). […] The supernatant after centrifugation at 200,000 g for 45 min was subjected to Ni-affinity column for purification. The protein extraction and purity was evaluated by SDS-PAGE. MsbA was further purified by anion-exchange chromatography and desalting column for the stability evaluation which was followed by ATPase activity measurement.
ATPase activity was measured using an ATP-regenerating system described by Vogel and Steinhart (Biochemistry 1976, 15, 208-16), and modified by Urbatsch et al. (J. Biol. Chem. 1995, 270, 19383-90). Briefly, 1-2 μg of detergent solubilized MsbA was added to 100 μL of Linked Enzyme (LE) buffer at 37° C. containing 10 mM ATP, 12 mM MgCl2, 6 mM phosphoenolpyruvate (PEP), 1 mM NADH, 10 units of lactate dehydrogenase (LDH), 10 units of pyruvate kinase (PK), and 50 mM Tris-HCl (pH 7.5). ATP hydrolysis was measured as the decrease in absorbance of NADH at 340 nm using a DXT880 multiplate spectrofluorimeter (Beckman-Coulter). ATPase activity was calculated using the following equation: […], where ΔOD is the change in optical density and […].

T4 sequence (P63359 whole entry): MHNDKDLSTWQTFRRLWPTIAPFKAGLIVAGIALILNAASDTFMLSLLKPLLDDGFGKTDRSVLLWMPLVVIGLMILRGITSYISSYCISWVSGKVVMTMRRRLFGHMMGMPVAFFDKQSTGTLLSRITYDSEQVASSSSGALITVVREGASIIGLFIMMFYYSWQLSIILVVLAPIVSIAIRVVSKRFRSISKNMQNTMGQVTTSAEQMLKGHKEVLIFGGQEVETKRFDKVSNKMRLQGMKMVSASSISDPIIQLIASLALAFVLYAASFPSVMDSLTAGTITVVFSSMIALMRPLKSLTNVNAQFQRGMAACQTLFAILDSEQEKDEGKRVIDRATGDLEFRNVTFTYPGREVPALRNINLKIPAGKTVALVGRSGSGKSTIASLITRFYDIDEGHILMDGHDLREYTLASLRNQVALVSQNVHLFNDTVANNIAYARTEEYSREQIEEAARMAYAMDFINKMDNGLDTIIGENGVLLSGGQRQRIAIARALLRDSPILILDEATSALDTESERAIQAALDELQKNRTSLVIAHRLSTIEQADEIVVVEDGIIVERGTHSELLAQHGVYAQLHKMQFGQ
T2 sequence (P63359 whole entry): as above

CCC[C@@H](C)[C@H]1CC[C@H]2[C@@H]3[C@H](O[C@@H]4OC(CO)[C@@H](O[C@H]5OC(CO)[C@@H](O)[C@H](O)C5O)[C@H](O)C4O)C[C@@H]4CCCC[C@]4(C)[C@H]3C[C@H](O[C@@H]3OC(CO)[C@@H](O[C@H]4OC(CO)[C@@H](O)[C@H](O)C4O)[C@H](O)C3O)[C@]12C (stereo partly drawn) [Compound A1, 7α,12α-Di-(O-β-D-maltosyl)-cholane]
hydrodynamic radius of the micelle [1]: 3.0-3.1 nm and 3.0 nm
UV-vis spectral change of bacteriorhodopsin sample ([2]; over the course of almost one year): no observable UV-vis spectral change
stability of BR stored in the detergent [2]: remained completely stable
CMC [3]: 0.1 mM
CMC ([3]; ANS fluorescence assay): 0.01%
melting point: 188 to 190 °C

CCC[C@@H](C)[C@H]1CC[C@H]2[C@@H]3[C@H](OCCO[C@@H]4OC(CO)[C@@H](O[C@H]5OC(CO)[C@@H](O)[C@H](O)C5O)[C@H](O)C4O)C[C@@H]4CCCC[C@]4(C)[C@H]3C[C@H](OCCO[C@@H]3OC(CO)[C@@H](O[C@H]4OC(CO)[C@@H](O)[C@H](O)C4O)[C@H](O)C3O)[C@]12C (stereo partly drawn) [Compound A2, 7α,12α-Di-((O-β-D-maltosyl)-2-hydroxyethoxy)-cholane]
hydrodynamic radius of the micelle [1]: 2.7 nm
CMC ([3]; ANS fluorescence assay): 0.01%

CCC[C@@H](C)[C@H]1CC[C@H]2[C@@H]3[C@H](OCCO[C@@H]4OC(CO)[C@@H](O[C@H]5OC(CO)[C@@H](O)[C@H](O)C5O)[C@H](O)C4O)C[C@@H]4C[C@H](O)CC[C@]4(C)[C@H]3C[C@H](OCCO[C@@H]3OC(CO)[C@@H](O[C@H]4OC(CO)[C@@H](O)[C@H](O)C4O)[C@H](O)C3O)[C@]12C (stereo partly drawn) [Compound B1, 3α-hydroxyl-7α,12α-Di-((O-β-D-maltosyl)-2-hydroxyethoxy)-cholane]
hydrodynamic radius of the micelle [1]: 2.2 nm
CMC ([3]; ANS fluorescence assay): 0.02%
SAXS of MsbA prepared in the presence of the detergent [4]: Favorable results

CCC[C@@H](C)[C@H]1CC[C@H]2[C@@H]3[C@H](OCCO[C@@H]4OC(CO)[C@@H](O)[C@H](O)C4O)C[C@@H]4C[C@H](O)CC[C@]4(C)[C@H]3C[C@H](OCCO[C@@H]3OC(CO)[C@@H](O)[C@H](O)C3O)[C@]12C (stereo partly drawn) [Compound B2, 3α-hydroxyl-7α,12α-Di-((O-D-glucosyl)-2-hydroxyethoxy)-cholane]
CMC ([3]; ANS fluorescence assay): 0.013%

CCCCCCCCCCCCO[C@@H]1O[C@H](CO)[C@@H](O[C@H]2O[C@H](CO)[C@@H](O)[C@H](O)[C@H]2O)[C@H](O)[C@H]1O [DDM, dodecyl-β-D-maltoside, reference compound]
hydrodynamic radius of the micelle [1]: 3.3-3.4 nm
crystallizability of cytochrome c oxidase ba3 [5]: not crystallizable

CCCCCCCCO[C@@H]1O[C@H](CO)[C@@H](O)[C@H](O)[C@H]1O [OG, octyl-β-D-glucoside, reference compound]
CMC [6]: 0.53%
stability of BR stored in the detergent [2]: gradually denatured

CCCCCCCCCCCO[C@@H]1O[C@H](CO)[C@@H](O[C@H]2O[C@H](CO)[C@@H](O)[C@H](O)[C@H]2O)[C@H](O)[C@H]1O [β-UDM, Undecyl-β-D-maltoside]
detergent binding ratio [7]: 219±13 mol/mol MsbA
loss of ATPase activity of MsbA ([8]; RT, in 2 days): more than 70%
ATPase activity of S. typhimurium MsbA, comparison of detergents ([8]; compared with β-UDM and 24 commercial detergents): highest ATPase activity among all 24 commercial detergents tested
MsbA stability in the detergent (protein solution, ATPase activity) ([8]; followed for more than a week at RT (about 23° C.)): collapsed to form visible aggregates
initial ATPase activity ([8]; freshly purified MsbA in the detergent, 37° C.): 1.19±0.03 μmol ATP·min^−1·mg^−1
